The source of these data is patent US7332476B2, “Pyridyl substituted ketolide antibiotics” (Novartis AG, priority 2003, dated 2008).

≈ marks a conversion by molar mass, not a printed value.

Common to all, as to test: MIC, broth microdilution (NCCLS)
The test system of test [1] is Enterococcus faecalis Enfa_29212. The test is classed as cell-based. The conditions noted are these: Table 5, Strain ID C (Table 4): E. faecalis Enfa_29212; in µg/mL (unit assumed). The method in brief:
(§1)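 Broth microdilution per NCCLS in cation-adjusted Mueller-Hinton broth, with 2-5% lysed horse blood added for S. pneumoniae. Inoculum 3×10^5–7×10^5 CFU/ml, 2-fold drug dilutions, 18-24 h at 35° C; S. pneumoniae under 5-10% CO2, others ambient air. MIC = lowest concentration preventing visible growth.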

In test [2] the test system is Haemophilus influenzae Hain_49247. The class given is cell-based. The conditions noted are these: Table 5, Strain ID L (Table 4): H. influenzae Hain_49247; unit assumed.
Test [3] deals with Staphylococcus epidermidis Step_14990. The class given is cell-based. The conditions noted are these: Table 5, Strain ID A (Table 4): S. epidermidis Step_14990; in µg/mL (unit assumed). The procedure, abridged:
as §1

Test [4] relates to Staphylococcus epidermidis Step_f50654. The test is classed as cell-based. The following applies: Table 5, Strain ID B (Table 4): S. epidermidis Step_f50654 Pen S; in µg/mL (unit assumed). The procedure, abridged: as §1
Test [5] relates to Streptococcus pneumoniae Stpn_Erm S 4297. The test is classed as cell-based. The following applies: Table 5, Strain ID I (Table 4): S. pneumoniae Stpn_Erm S 4297. The procedure, abridged:
as §1

Test [6] has as its system Streptococcus pneumoniae Stpn_Mef S 3427. The class given is cell-based. The following applies: Table 5, Strain ID K (Table 4): S. pneumoniae Stpn_Mef S 3427. The method in brief: as §1
The subject of test [7] is Streptococcus pyogenes Stpy_8668. The class given is cell-based. The conditions noted are these: Table 5, Strain ID D (Table 4): S. pyogenes Stpy_8668. The method in brief:
as §1

Test [8] relates to Streptococcus pneumoniae Stpn_49619. The class given is cell-based. The following applies: Table 5, Strain ID E (Table 4): S. pneumoniae Stpn_49619. The method in brief: as §1
Test [9] concerns Streptococcus pneumoniae Stpn_297-749. The class given is cell-based. The following applies: Table 5, Strain ID F (Table 4): S. pneumoniae Stpn_297-749 Pen R. The method in brief: as §1
Test [10] has as its system Streptococcus pneumoniae Stpn_280-962. The test is classed as cell-based. The following applies: Table 5, Strain ID G (Table 4): S. pneumoniae Stpn_280-962 Pen S. The method in brief:
as §1

Test [11] concerns S. pneumoniae Stpn_Erm 6849. The test is classed as cell-based, Streptococcus pneumoniae. The conditions noted are these: Table 5, Strain ID H (Table 4): S. pneumoniae Stpn_Erm 6849; unit assumed. The procedure, abridged: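 Lowest drug concentration giving no visible growth after 18-24 hours at 35° C. under 5-10% CO2 was taken as MIC. Twofold serial dilutions in CAMHB plus 2-5% lysed horse blood, final inoculum 3×10^5–7×10^5 CFU/ml, per NCCLS microdilution.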

The test system of test [12] is Streptococcus pneumoniae Stpn_Mef 5654. The class given is cell-based. The conditions noted are these: Table 5, Strain ID J (Table 4): S. pneumoniae Stpn_Mef 5654; in µg/mL (unit assumed). The procedure, abridged:
as §1

In the next test the test system is E. coli Esco_25922. The test is classed as cell-based. The following applies: Table 5, Strain ID M (Table 4): E. coli Esco_25922; unit assumed. The procedure: Strains. The bacterial isolates listed in Table 4 were cultivated from −70° C. frozen stocks by two consecutive overnight passages (P1, P2) at 35° C. on 5% blood agar (Remel, Lenexa, Kans.). Chocolate agar (Remel) is used for Haemophilus influenzae. H. influenzae and Streptococcus pneumoniae are incubated in 5-10% CO2
Drug Stock Preparation. To determine the amount of solvent to be used to give the desired final concentration, the formula “weight obtained in mg/final concentration in mg/ml” will be used. It will give the amount of solvent in ml needed to be added to give the desired concentration. For example, if 2.5 mg/ml is the desired concentration and the weight of compound is 13.7 mg, then the amount of solvent to be added is […]. Methanol is used as the solvent to dissolve the test compounds. Further dilution of stock is done in sterile, deionized water. Drug stocks are kept frozen at −70° C., protected from light.
Susceptibility Testing. MICs are determined by the broth microdilution method in accordance with the NCCLS guidelines. In brief, organism suspensions are adjusted to a 0.5 McFarland standard to yield a final inoculum between 3×10^5 and 7×10^5 CFU/ml. Drug dilutions and inocula are made in sterile, cation adjusted Mueller-Hinton Broth (CAMHB) (Remel) for all but S. pneumoniae [CAMHB with 2-5% lysed horse blood (Remel)] and H. influenzae [Haemophilus Test Medium (Remel)]. An inoculum volume of 100 μl is added to wells containing 100 μl of broth with 2-fold serial dilutions of drug. All inoculated microdilution trays are incubated in ambient air at 35° C. for 18-24 hours, except for S. pneumoniae, and H. influenzae (both at 5-10% CO2).
Following appropriate incubation, the MIC is determined and the MIC is defined as the lowest concentration of the drug that prevented visible growth.

With `CC[C@H]1OC(=O)[C@H](C)C(=O)[C@H](C)[C@@H](OC2O[C@H](C)C[C@H](N(C)C)[C@H]2O)[C@@](C)(OC)C[C@@H](C)C(=O)[C@H](C)[C@H]2N(CCCCn3cnc(-c4cccnc4)c3)C(=O)O[C@]12CC` (stereo partly drawn) [Compound 7280], the MIC in test [1] is 0.1; in test [2], 6.25 µg/mL (≈ 7.57 µM); in test [3], 0.2; in test [4] it was 0.2; in [5], “=0.05”; in test [6] (in µg/mL (unit assumed)), 0.1. In addition, the MIC result was “=0.05” in test [7]; “=0.05” in test [8]; “=0.05” in test [9]; “=0.05” in test [10]; 0.4 µg/mL (≈ 0.484 µM) in test [11]; 0.4 in test [12]. In the test on E. coli Esco_25922, this compound displayed an MIC of 25 µg/mL (≈ 30.3 µM).
Regarding `CC[C@H]1OC(=O)[C@H](C)C(=O)[C@H](C)[C@@H](OC2O[C@H](C)C[C@H](N(C)C)[C@H]2O)[C@@](C)(OC)C[C@@H](C)C(=O)[C@H](C)[C@H]2N(CCCCn3cnc(-c4ccccc4)c3)C(=O)O[C@]12CC` (stereo partly drawn) [Compound 7281], the MIC is 0.1 in test [1]; 3.13 µg/mL (≈ 3.79 µM) in test [2]; 0.2 in [3]; 0.1 in test [4]; “=0.05” in test [5]; “=0.05” in test [6]. Also, the MIC entry in test [7] is “=0.05”; in test [8] it was “=0.05”; in test [9], “=0.05”; in test [10], “=0.05”; in test [11], 0.2 µg/mL (≈ 0.242 µM); in [12], 0.4. This compound also displayed an MIC in the test with E. coli Esco_25922 of 25 µg/mL (≈ 30.3 µM).
Take `CC[C@H]1OC(=O)[C@H](C)C(=O)[C@H](C)[C@@H](OC2O[C@H](C)C[C@H](N(C)C)[C@H]2O)[C@@](C)(OC)C[C@@H](C)C(=O)[C@H](C)[C@H]2N(CCCCn3cnc4ccccc43)C(=O)O[C@]12CC` (stereo partly drawn) [Compound 7282]: the MIC was 0.1 in test [1]; 3.13 µg/mL (≈ 3.92 µM) in test [2]; 0.4 in test [3]; 0.2 in [4]; 0.2 µg/mL (≈ 0.25 µM) in test [5] (unit assumed); 0.1 in test [6] (in µg/mL (unit assumed)). The MIC result was “=0.05” in test [7]; “=0.05” in test [8]; “=0.05” in test [9]; “=0.05” in [10]; 0.78 µg/mL (≈ 0.976 µM) in [11]; 0.4 in [12]. The MIC in the test on E. coli Esco_25922 was 12.5 µg/mL (≈ 15.6 µM).
